Results published in patent US10532066B2, “Surfactant lipids, compositions thereof, and uses thereof” (National Jewish Health, priority 2007, dated 2020).
Entries after “also recorded” stand apart in the source; their conditions may differ.

Tests used:
[1] = system: differentiated U937 cells; test: LPS-induced TNF-α secretion by differentiated U937 cells; assay type: cell-based, human; conditions: LPS 10 ng/ml, 6 h, liposomes; LPS without phospholipid = 100%
Experimental: FIG. 1. Anionic phospholipids inhibit inflammatory mediator production induced by LPS. Liposomes composed of sphingomyelin (SM), phosphatidylethanolamine (PE) dipalmitoyl-phosphatidylcholine ((DPPC), phosphatidylserine (PS), palmitoyl-oleoyl-phosphatidylglycerol (POPG) and phosphatidylinositol (PI) were formed by bath-sonication for 30 min at room temperature. LPS (10 ng/ml) and different concentrations of phospholipids were added to monolayer cultures of differentiated U937 cells (A), or primary rat alveolar macrophages (B). At 6 h after stimulation, media were collected and secreted TNF-α levels were determined in U937 cultures. NO production was determined 24 h after stimulating rat alveolar macrophages. LPS stimulation in the absence of phospholipid was set as 100%. […] The average TNF-α production upon LPS stimulation was (8.0±0.54 ng/ml). The average NO production upon LPS stimulation was 12.17±0.27 μM.
FIG. 2. The inhibitory effect of phosphatidylglycerols on LPS-induced inflammatory mediator production is molecular species specific. PG liposomes were formed by bath-sonication for 30 min at room temperature. LPS (10 ng/ml) and different concentrations of PG were added to monolayer cultures of differentiated U937 cells (A) or rat alveolar macrophages (B). Media TNF-α measurements were performed 6 h after stimulation. Media NO measurements were performed 24 h after stimulation. LPS stimulation without PG was set at 100%. The molecular species of PG shown on the graph are 8:0; dioctanoyl-phosphatidylglycerol, 12:0; dilauroyl-phosphatidylglycerol (DLPG), 14:0; dimyristoyl-phosphatidylglycerol (DMPG), 16:0; dipalmitoyl-phosphatidylglycerol (DPPG), 18:0; distearoyl-phosphatidylglycerol, 16:0/18:1; palmitoyl-oleoyl-phosphatidylglycerol (POPG). […] The average TNF-α production upon LPS stimulation was 11.3±0.7 ng/ml. The average NO production upon LPS stimulation was 10.1±0.6 μM.
FIG. 3. […] Surfactant lipid (SL) and POPG were dried under nitrogen, and hydrated at 37° C. for 1 h. (A) SL and POPG were mixed in organic solvents prior to drying and hydrating and subsequently liposomes were produced. (B) SL and POPG were made as independent populations of liposomes that were subsequently mixed prior to macrophage treatment. 10 ng/ml of LPS and different concentrations of liposome mixtures were added to monolayer cultures of differentiated U937 cells. 6 h after stimulation, media were collected and TNF-α production was determined. LPS stimulation without phospholipid was set as 100%. […] The average TNF-α production upon LPS stimulation was 7.0±0.2 ng/ml.
(§1) U937 cells were induced to differentiate by treatment with 10 nM phorbol myristate acetate (PMA) for 48 h. The cells (1.3×10^5/well) were placed in 96-well plates and further incubated in the absence of PMA for 24 h in RPMI 1640 medium containing 10% BGS. Rat alveolar macrophages (5×10^5/well) were incubated in 24-well plates for 2 h after isolation. The indicated concentration of phospholipids was added to the cultures 30 min before adding LPS. After LPS addition cultures were incubated for 6 h at 37° C. at an atmosphere of 95% air and 5% CO2. At the end of the incubation period the medium was collected and assayed for TNF-α concentrations using an ELISA kit.
Surfactant lipids were isolated from the bronchioalveolar lavage of Sprague-Dawley rats, 28 days after intratracheal instillation of 25 mg of silica (˜125 mg/kg). Initially, the surfactant was purified by the method of Hawgood et. al. (25) using NaBr density gradient centrifugation. The purified surfactant was extracted with butanol (26) and segregated into butanol-soluble and -insoluble material.

[2] = system: human alveolar macrophages; test: LPS-induced TNF-α production by primary human alveolar macrophages; assay type: cell-based; conditions: LPS 10 ng/ml, phospholipids 20 μg/ml, 6 h
Experimental: FIG. 8. POPG, DMPG and PI antagonize the effects of LPS on primary human alveolar macrophages. Human alveolar macrophages were isolated from healthy volunteer BALF and plated onto a 96-well plate. Two days after plating, 10 ng/ml of LPS and 20 μg/ml of phospholipids were added to monolayer cultures of human alveolar macrophages. 6 h after stimulation, media were collected and TNF-α production was determined by ELISA. LPS stimulation without phospholipid was set at 100%. […] The average TNF-α secretion after LPS stimulation was 30.7±15.1 ng/ml. Significance—**: p<0.01, when compared with LPS stimulation in the absence of POPG.
Human alveolar macrophages were isolated from BALF of healthy volunteers using protocols reviewed and approved by the National Jewish Medical Research Center IRB and the University of Colorado General Clinical Research Center. The lungs were lavaged with pyrogen-free saline, and alveolar macrophages were sedimented by centrifugation at 150×g×5 min. Isolated macrophages were plated at 5×10^4 cells/well in 96-well plates (Falcon) in RPMI 1640 medium containing 10% BGS. The cells were allowed to adhere for 48 h and then used for the experiments after washing with PBS to remove the unattached cells.
as §1
Human alveolar macrophages were isolated from healthy volunteer BALF and plated onto a 96-well plate. Two days after plating, 10 ng/ml of LPS and 20 μg/ml of phospholipids (POPG, DMPG and PI) were added to monolayer cultures of human alveolar macrophages. 6 h after stimulation, media were collected and TNF-α production was determined by ELISA. LPS stimulation without phospholipid was set at 100%. […] The average TNF-α secretion after LPS stimulation was 30.7±15.1 ng/ml. Significance—**: p<0.01, when compared with LPS stimulation in the absence of POPG.

[3] = molecular target: T1, MD-2 (Homo sapiens, UniProt Q9Y6Y9); test: MD-2 binding to solid phase phospholipids; conditions: for binding to MD-2: 1.25 nmole lipid per well, MD-2 1 μg/ml
T1 construct: made in house; host or cells: baculovirus-insect cell expression system
T1 sequence (Q9Y6Y9 19-160): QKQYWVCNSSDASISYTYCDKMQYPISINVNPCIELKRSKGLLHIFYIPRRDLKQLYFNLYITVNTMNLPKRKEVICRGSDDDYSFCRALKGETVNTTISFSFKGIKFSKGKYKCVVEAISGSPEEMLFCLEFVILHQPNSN
Experimental: FIG. 16. MD-2 preferentially binds POPG.
The wells were then washed with 20 mM Tris buffer (pH 7.4) containing 0.15 M NaCl and 5 mM CaCl2 or 2 mM EGTA (buffer B), and 1 μg/ml anti-human CD14 IgG or anti-His antibody (50 μl/well) in buffer A was added and incubated overnight at 4° C., followed by the incubation with horseradish peroxidase (HRP)-labeled anti-mouse IgG (1:5000) for 1 h. After washing the wells with buffer B, the peroxidase reaction was finally performed using o-phenylenediamine as a substrate. The binding of CD14 or MD-2 to phospholipids was detected by measuring absorbance at 490 nm.

Row | Molecule | LPS-induced TNF-α production [1] | LPS-induced TNF-α production [2] | LPS-induced TNF-α production ([2]; listed as dimyristoyl PG) | binding to MD-2 relative to the POPG value ([3]; POPG = 100%) | binding to MD-2 [3]
1 | CCCCCCCCCCCCCC(=O)OCC(COP(=O)(O)OCC(O)CO)OC(=O)CCCCCCCCCCCCC (stereo not drawn) [DMPG, dimyristoyl-phosphatidylglycerol] | as potent as POPG | antagonize | markedly attenuate | ~50% | –
2 | CCCCCCCCCCCCCCCC(=O)OC[C@H](COP(=O)([O-])OCC[N+](C)(C)C)OC(=O)CCCCCCCCCCCCCCC [DPPC, dipalmitoyl-phosphatidylcholine, reference compound] | no significant effect | no significant effect | – | – | –
3 | CCCCCCCCCCCCCCCC(=O)OCC(COP(=O)(O)OCC(O)CO)OC(=O)CCCCCCCCCCCCCCC (stereo not drawn) [DPPG, dipalmitoyl-phosphatidylglycerol, reference compound] | failed to antagonize | no significant effect | – | – | Neither saturated nor unsaturated PC, nor unsaturated PI, nor DPPG showed any significant binding
4 | CCCCCCCC/C=C\CCCCCCCC(=O)O[C@H](COC(=O)CCCCCCCCCCCCCCC)COP(=O)(O)OCC(O)CO (stereo partly drawn) [POPG, palmitoyl-oleoyl-phosphatidylglycerol] | significantly attenuated | markedly attenuate; also recorded: antagonize | – | – | strongly bound
5 | phosphatidylinositol [PI] | significantly attenuated | markedly attenuate; also recorded: antagonize | – | – | Neither saturated nor unsaturated PC, nor unsaturated PI, nor DPPG showed any significant binding
